34 compounds from US11970448B2, “Monomers capable of dimerizing in an aqueous solution, and methods of using same” (CORNELL UNIVERSITY, priority 2011, dated 2024) can be followed below.

Where a name gives a salt, the structure may show the parent alone. Read-outs that look alike come from different tables or passages of the source.

This test deals with T1, recominbant human tryptase, beta, from lung (Homo sapiens, UniProt P20231).
T1 construct: purchased Promega or Enzo Life Sciences G5631 or BML-SE418
T1 sequence (P20231 31-275): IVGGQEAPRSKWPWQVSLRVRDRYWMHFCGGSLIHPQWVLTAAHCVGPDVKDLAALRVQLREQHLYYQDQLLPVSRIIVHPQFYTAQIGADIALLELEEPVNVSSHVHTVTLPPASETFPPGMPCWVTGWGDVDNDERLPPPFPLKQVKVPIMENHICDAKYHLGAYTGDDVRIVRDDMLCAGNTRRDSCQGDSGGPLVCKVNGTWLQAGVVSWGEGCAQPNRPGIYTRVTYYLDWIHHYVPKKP
Nature of the test: Inhibition of tryptase activity by monomers and multimers (Boc-Gln-Ala-Arg-AMC fluorescence). The following applies: monomers against tryptase. The class given is biochemical. As to the method: Stock solutions of recominbant human tryptase, beta, from lung (Promega: catalog number G5631, or Enzo Life Sciences: catalog number BML-SE418) were made at 30 μM, in solution with 5 μM heparin sulfate and 1 M NaCl. Monomer tryptase inhibitor stock solutions were made at 50 mM in DMSO. Test substance plates were made at 1.2× the final concentration in assay buffer (50 mM HEPES, 150 mM NaCl, 100 μM EDTA, pH 7.4, 0.02% Tween-20). A final concentration of 1 nM tryptase was used. When required, test substances were diluted in water immediately before use in 10-fold serial dilutions. After the indicated incubation time, the test subtance-tryptase solution at 1.2× concentration, was diluted into assay buffer containing a final concentration of 200 μM N-tert-butoxycarbonyl-Gln-Ala-Arg-AMC HBr [AMC=7-amino-4-methylcoumarin] (Boc-Gln-Ala-Arg-AMC; Enzo Life Sciences: catalog number BML-P237) to a final volume of 50 μl in black opaque round bottom 96 well plates (Corning, catalog number 3792). The release of fluorescent AMC was immediately measured every 30 seconds over 15-30 minutes at an excitation wavelength of 367 nm, monitoring emission at 468 nm on a Spectramax M5 (Molecular Devices) microplate reader. The Softmax Pro (Molecular Devices) and Graphpad prism software were used to determine Vmax, and concentration-response curve IC50s, respectively.

[1] abbreviates: Table 5, read-out: Monomer IC50 range.
Setting [2] is: read-out: IC50 range group of additional monomers (boronic acid, benzooxaborole, ligands).
The mark [3] stands for this setting: entry marked (1:10), read-out: IC50 range group of additional monomers marked (1:10).

On to `NCc1cccc(C2CCN(C(=O)c3cccc4sc(Br)cc34)CC2)c1` [T37A, (4-(3-(aminomethyl)phenyl)piperidin-1-yl)(2-bromobenzo[b]thiophen-4-yl)methanone], for which, under setting [1], the IC50 – broadly, the concentration needed to halve the response being measured – lay in the range of 1 to 10 µM.
Take `NCc1cccc(C2CCN(C(=O)c3cccc(NC(=O)NCC(O)C(F)(F)F)c3)CC2)c1` (centres unmarked) [CF17, 1-(3-(4-(3-(aminomethyl)phenyl)piperidine-1-carbonyl)phenyl)-3-(3,3,3-trifluoro-2-hydroxypropyl)urea hydrochloride]: under setting [1], the IC50 fell in the range of 0.0001 to 1 µM.
Turning to `NCc1cccc(C2CCN(C(=O)C3CC4CCC3C(O)C4O)CC2)c1` (racemic) [T142EXOANTI, (±) endo (4-(3 (aminomethyl)phenyl)piperidin-1-yl)(-5,6-anti-dihydroxybicyclo[2.2.2]octan-2-yl)methanone], under setting [2], the IC50 fell in the range of 10 to 65 µM.
Turning to `NCc1cccc(C2CCN(C(=O)c3cccc(-c4ccc5c(c4)COB5O)c3)CC2)c1` [T36M, (4-(3-(aminomethyl)phenyl)piperidin-1-yl)(3-(1-hydroxy-1,3-dihydrobenzo[c][1,2]oxaborol-5-yl)phenyl)methanone], the IC50 runs as follows: under setting [1], 0.0001 to 1 µM; under setting [2], 0.0001 to 1 µM.
With `CC(C)(C)ONC(=O)c1ccc(C(=O)N2CCC(c3cccc(CN)c3)CC2)cc1O` [T75AOTB], the IC50 under setting [2] lay in the range of 1 to 10 µM.
Take `CC(O)(Cn1ccc2ccc(C(=O)N3CCC(c4cccc(CN)c4)CC3)cc21)C(=O)O` (centres unmarked) [T82, 3-(6-(4-(3-(aminomethyl)phenyl)piperidine-1-carbonyl)-1H-indol-1-yl)-2-hydroxy-2-methylpropanoic acid]: the IC50 fell in the range of 0.0001 to 1 µM under setting [1] and 0.0001 to 1 µM under setting [3].
As to `NCc1ccc(CNC(=O)N2CCN(C(=O)CNC(=O)C(=O)CO)CC2)cc1` [CF20, N-(4-(aminomethyl)benzyl)-4-(2-(3-hydroxy-2-oxopropanamido)acetyl)piperazine-1-carboxamide], the IC50 under setting [1] is 0.0001 to 1 µM.
Take `C[C@@]1(O)CN(c2cccc(C(=O)N3CCC(c4cccc(CN)c4)CC3)c2)C(=O)[C@@H]1O` [CMI9317, 1-{^3-[^4-(3-aminomethyl-phenyl)-piperidine-1-carbonyl]-phenyl}-3,4-dihydroxy-4-methyl-pyrrolidin-2-one hydrochloride]: the IC50 under setting [3] is 0.0001 to 1 µM.
For the compound `CC(C)(O)c1ccc(/C=C/C(=O)N2CCC(c3cccc(CN)c3)CC2)cc1O` [T41GEM, (E)-1-(4-(3-(aminomethyl)phenyl)piperidin-1-yl)-3-(3-hydroxy-4-(2-hydroxypropan-2-yl)phenyl)prop-2-en-1-one], the IC50 by setting is: under setting [1], 0.0001 to 1 µM; under setting [2], 0.0001 to 1 µM.
Take `CC(C)(C)ONC(=O)c1cc(C(=O)N2CCC3(CC2)COc2ccc(CN)cc23)ccc1O` [T920TBSPIRO]: under setting [2], the IC50 lay within 1 to 10 µM.
Regarding `NCc1ccc(CNC(=O)N2CCN(C(=O)CNC(=O)C(O)CO)CC2)cc1` (centres unmarked) [CF13, N-(4-(aminomethyl)benzyl)-4-(2-(2,3-dihydroxypropanamido)acetyl)piperazine-1-carboxamide hydrochloride], the IC50 under setting [1] lay in the range of 1 to 10 µM.
As for `NCc1cccc(C2CCN(C(=O)c3ccc(CO)c(O)c3)CC2)c1` [T74, (4-(3-(aminomethyl)phenyl)piperidin-1-yl)(3-hydroxy-4-(hydroxymethyl)phenyl)methanone], the IC50 under setting [1] is 0.0001 to 1 µM and the IC50 under setting [3] lay in the range of 0.0001 to 1 µM.
For the compound `NCc1cccc(C2CCN(C(=O)c3cccc(OCCC(=O)N4C[C@@H](O)[C@@H](O)C4)c3)CC2)c1` [T53, 3-(3-(4-(3-(aminomethyl)phenyl)piperidine-1-carbonyl)phenoxy)-1-((3S,4R)-3,4-dihydroxypyrrolidin-1-yl)propan-1-one], the IC50 by setting is: under setting [1], 0.0001 to 1 µM; under setting [2], 0.0001 to 1 µM.
For the compound `NCc1ccc2c(c1)C1(CCN(C(=O)c3ccc(Cl)c(-c4cccc(B(O)O)c4)c3)CC1)CO2` [T109SPIRO], the IC50 under setting [2] is 0.0001 to 1 µM.
Turning to `NCc1cccc(C2CCN(C(=O)c3cc4c(Br)cccc4s3)CC2)c1` [T56A, (4-(3-(aminomethyl)phenyl)piperidin-1-yl)(4-bromobenzo[b]thiophen-2-yl)methanone], the IC50 under setting [1] lay in the range of 0.0001 to 1 µM.
Regarding `NCc1cccc(C2CCN(C(=O)/C=C\c3ccc(O)c(O)c3)CC2)c1` [T24cis, (Z)-1-(4-(3-(aminomethyl)phenyl)piperidin-1-yl)-3-(3,4-dihydroxyphenyl)prop-2-en-1-one], the IC50 by setting is: under setting [1], 1 to 10 µM; under setting [2], 1 to 10 µM.
In the case of `NCc1cccc(C2CCN(C(=O)c3ccc(OCC(=O)N4C[C@@H](O)[C@@H](O)C4)cc3)CC2)c1` [T30, 2-(4-(4-(3-(aminomethyl)phenyl)piperidine-1-carbonyl)phenoxy)-1-((3S,4R)-3,4-dihydroxypyrrolidin-1-yl)ethanone], the IC50 lay in the range of 1 to 10 µM under setting [1] and 1 to 10 µM under setting [2].
Consider `NCc1cccc(C2CCN(C(=O)c3cccc(OCC(=O)N4C[C@@H](O)[C@@H](O)C4)c3)CC2)c1` [T29, 2-(3-(4-(3-(aminomethyl)phenyl)piperidine-1-carbonyl)phenoxy)-1-((3S,4R)-3,4-dihydroxypyrrolidin-1-yl)ethanone], for which, under setting [1], the IC50 is 1 to 10 µM.
For `NCc1cccc(C2CCN(C(=O)Cc3ccc(B(O)O)cc3F)CC2)c1` [T58, 4-(2-(4-(3-(aminomethyl)phenyl)piperidin-1-yl)-2-oxoethyl)-3-fluorophenylboronic acid], the IC50 runs as follows: under setting [1], 1 to 10 µM; under setting [2], 1 to 10 µM.
On to `CONC(=O)c1cc(C(=O)N2CCC3(CC2)COc2ccc(CN)cc23)ccc1O` [T92SPIRO], for which the IC50 under setting [2] was 0.0001 to 1 µM.
Take `NCc1cccc(C2CCN(C(=O)c3ccc(O)c(O)c3O)CC2)c1` [T68, (4-(3-(aminomethyl)phenyl)piperidin-1-yl)(2,3,4-trihydroxyphenyl)methanone]: the IC50 reads like this: under setting [1], 1 to 10 µM; under setting [2], 1 to 10 µM.
Consider `NCc1cccc(C2CCN(C(=O)Cc3cc(=O)oc4c(O)c(O)ccc34)CC2)c1` [T98], for which, under setting [2], the half-inhibitory concentration (IC50) is 10 to 65 µM.
Regarding `NCc1cccc(C2CCN(C(=O)Cc3cc(B(O)O)ccc3F)CC2)c1` [T57, 3-(2-(4-(3-(aminomethyl)phenyl)piperidin-1-yl)-2-oxoethyl)-4-fluorophenylboronic acid], the IC50 by setting is: under setting [1], 1 to 10 µM; under setting [2], 1 to 10 µM.
For `NCc1ccc2c(c1)C1(CCN(C(=O)c3ccc(C(=O)NOc4ccccc4)c(O)c3)CC1)CO2` [T75APSPIRO], under setting [2], the IC50 was 0.0001 to 1 µM.
With `NCc1cccc(C2CCN(C(=O)c3ccc(C(=O)NOc4ccccc4)c(O)c3)CC2)c1` [T75AP], under setting [3], the IC50 fell in the range of 0.0001 to 1 µM.
For `NCc1ccc2c(c1)C1(CCN(C(=O)c3ccc(CO)c(O)c3)CC1)CO2` [T74SPIRO], the IC50 under setting [2] is 0.0001 to 1 µM.
With `NCc1cccc(C2CCN(C(=O)c3cccc(C(=O)N4C[C@@H](O)[C@H](O)C4)c3)CC2)c1` [T26diol cis, (4-(3-(aminomethyl)phenyl)piperidin-1-yl)(3-((3R,4R)-3,4-dihydroxypyrrolidine-1-carbonyl)phenyl)methanone], the IC50 reads like this: under setting [1], 1 to 10 µM; under setting [2], 1 to 10 µM.
Consider `NCc1ccc(F)c(C2CCN(C(=O)c3cccc4cc(O)c(O)cc34)CC2)c1` [T27F, (4-(5-(aminomethyl)-2-fluorophenyl)piperidin-1-yl)(6,7-dihydroxynaphthalen-1-yl)methanone], for which the IC50 is, setting by setting: under setting [1], 1 to 10 µM; under setting [2], 1 to 10 µM.
For `CC(O)(COc1cccc(C(=O)N2CCC(c3cccc(CN)c3)CC2)c1)C(=O)O` (centres unmarked) [T72, 3-(3-(4-(3-(aminomethyl)phenyl)piperidine-1-carbonyl)phenoxy)-2-hydroxy-2-methylpropanoic acid], the IC50 is, setting by setting: under setting [1], 0.0001 to 1 µM; under setting [2], 0.0001 to 1 µM.
Turning to `NCc1cccc(C2CCN(C(=O)c3cccc(OCC(O)(C(=O)O)c4ccccc4)c3)CC2)c1` (centres unmarked) [T73, 3-(3-(4-(3-(aminomethyl)phenyl)piperidine-1-carbonyl)phenoxy)-2-hydroxy-2-phenylpropanoic acid], the concentration for half-maximal inhibition (IC50) was 0.0001 to 1 µM under setting [1] and 0.0001 to 1 µM under setting [2].
Consider `NCc1cccc(C2CCN(C(=O)c3cccc(-c4cccc(B(O)O)c4)c3)CC2)c1` [T35, 3′-(4-(3-(aminomethyl)phenyl)piperidine-1-carbonyl)biphenyl-3-ylboronic acid], for which the IC50 lay within 0.0001 to 1 µM under setting [1] and 0.0001 to 1 µM under setting [2].
For `NCc1cccc(C2CCN(C(=O)/C=C/c3ccc(O)c(CO)c3)CC2)c1` [T40, (E)-1-(4-(3-(aminomethyl)phenyl)piperidin-1-yl)-3-(4-hydroxy-3-(hydroxymethyl)phenyl)prop-2-en-1-one], the IC50 under setting [1] was 1 to 10 µM and the IC50 under setting [2] lay within 1 to 10 µM.
Take `NCc1ccc(C(=O)NCc2ccc(OCC(=O)N3C[C@@H](O)[C@H](O)C3)cc2)cc1` [CF6, 4-(aminomethyl)-N-(4-(2-((3R,4R)-3,4-dihydroxypyrrolidin-1-yl)-2-oxoethoxy)benzyl)benzamide hydrochloride]: the 50% inhibitory concentration (IC50) under setting [1] is 10 to 65 µM.
On to `COc1cc(/C=C/C(=O)N2CCC(c3cccc(CN)c3)CC2)ccc1O` [T24MON, (E)-1-(4-(3-(aminomethyl)phenyl)piperidin-1-yl)-3-(4-hydroxy-3-methoxyphenyl)prop-2-en-1-one], for which the IC50 under setting [1] lay within 1 to 10 µM.
